From patent US12662513B2, “Peptidic modulators of quorum sensing in Staphylococcus epidermidis” (priority 2016, dated 2026)
Entries after “also recorded” stand apart in the source; their conditions may differ. Read-outs that look alike come from different tables or passages of the source. Bridge positions count the residues as written; N and C are the ends. Square brackets hold non-standard residues; d marks the D form. Ends that are not written are not given here. Peptide text beside a SMILES is read from it.

What was measured:
AgrC-I receptor [1] = biological target: T1, AgrC-I receptor (Staphylococcus epidermidis, UniProt Q5HMY3); experiment: cell-based; assay type: cell-based, S. epidermidis; settings: for Mode/strength of activity toward AgrC-I (Group I), in words: dose response; for EC50 in AgrC-I: activation dose response in the presence of 50 nM S. epidermidis AIP-II; for IC50 in AgrC-I: antagonism dose response, peptide alone, Group-I GFP reporter strain, 24 h
Protocol: The initial set of 14 analogs (listed in Table 1) was synthesized using solid-phase peptide chemistry and purified to homogeneity using previously established HPLC methods (59). Each analog was tested for its ability to modulate the activity of the AgrC-I receptor using a wild-type S. epidermidis Group-I fluorescence reporter strain. This strain contained a reporter plasmid encoding a gfp gene fused to the P3 promoter found upstream of RNAIII (36).
(§1) Biological reagents, strains, and general methods. All standard reagents were purchased from commercial sources and used according to enclosed instructions. The S. epidermidis fluorescence reporter strains AH3408 (Group-I), AH3567 (Group-II), and AH3409 (Group-III) were cultured in Tryptic Soy Broth (TSB, from Sigma) augmented with 10 μg/mL of erythromycin (36). The S. epidermidis wild-type strain RP62A (Group-I) was cultured in TSB (from Sigma or EMD Millipore). The S. aureus fluorescence reporter strains AH1677 (Group-I), AH430 (Group-II), AH1747 (Group-III), and AH1872 (Group-IV) were cultured in Brain Heart Infusion (BHI, from Teknova) augmented with 10 μg/mL of chloramphenicol (65). All cultures were grown at 37° C. with shaking (200 rpm) unless noted otherwise. Absorbance and fluorescence measurements were obtained using a Biotek Synergy 2 microplate reader operating Gen5 data analysis software. IC50 values and EC50 values were determined from sigmoidal curve fits using GraphPad Prism software (v. 6.0).
(§2) Fluorescence reporter assay protocol. […] Each peptide solution was tested in triplicate. […] Plates were then incubated at 37° C. for 24 h. Fluorescence (EX 500 nm/EM 540 nm) and OD600 of each well was measured using a plate reader, and the fluorescence values were normalized to the DMSO control.
(§3) The remaining steps of the fluorescence assay were the same as above.

AgrC-III = settings: for Activity toward Group-III at lower concentration, in words: single concentration 100 nM (or 1 μM)
Description: (§4) However, the biological significance of this agr interference remains unclear, although it has been hypothesized to potentially play a role in competition between different groups in a mixed bacteria milieu (18). […] To this end, the AIP analogs discussed above were screened in GFP reporter strains of Groups-II and -III S. epidermidis to complement the Group-I S. epidermidis data in Tables 1 and 2 (see Methods; FIGS. 7A and 7B).
as §1, §2, §3

AgrC-II = settings: for Activity toward Group-II at lower concentration, in words: single concentration 100 nM (or 1 μM); for potency estimated from few doses: single replicate dose response, Table 3; for Mode/strength of activity toward AgrC-II (Group II), in words: dose response
Description: as §4, §1, §2, §3

AgrC-I receptor [2] = biological target: T1, AgrC-I receptor; assay type: cell-based, S. epidermidis; settings: single replicate dose response, Table 3
[3] = test system: S. epidermidis Group-I RP62A biofilm; settings: read-out: IC50 of biofilm growth inhibition, 24 h static, CV staining
Protocol: as §1
Crystal violet biofilm assay protocol. […] Each solution was tested in triplicate.

[4] = read-out: AgrC-II: IC50 (estimated)
[5] = read-out: AgrC-I: EC50 (estimated)
[6] = read-out: AgrC-II: EC50 (estimated)
[7] = read-out: AgrC-I: IC50 (estimated)
[8] = dose response antagonism assay, FIGS. 3A/3B

T1 sequence (Q5HMY3 entry or part of it): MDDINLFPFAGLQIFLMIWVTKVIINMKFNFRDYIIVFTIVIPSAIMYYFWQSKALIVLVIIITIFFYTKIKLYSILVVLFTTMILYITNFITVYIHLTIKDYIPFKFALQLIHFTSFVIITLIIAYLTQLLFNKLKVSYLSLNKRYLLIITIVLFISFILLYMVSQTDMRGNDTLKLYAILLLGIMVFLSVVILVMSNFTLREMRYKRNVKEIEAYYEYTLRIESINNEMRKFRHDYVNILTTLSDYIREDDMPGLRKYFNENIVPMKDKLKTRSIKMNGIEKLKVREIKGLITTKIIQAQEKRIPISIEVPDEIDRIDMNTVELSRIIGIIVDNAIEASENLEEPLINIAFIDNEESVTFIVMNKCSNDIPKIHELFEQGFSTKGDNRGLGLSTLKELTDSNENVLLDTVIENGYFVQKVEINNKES

CC(C)[C@@H](NC(=O)[C@H](CO)NC(=O)[C@@H](N)CC(=O)O)C(=O)N[C@H]1CSC(=O)[C@H](Cc2ccccc2)NC(=O)[C@H](Cc2ccc(O)cc2)NC(=O)[C@H](CO)NC(=O)[C@H](C)NC1=O [AIP-I D-V3, D-S-DV-(C-A-S-Y-F)] (H-DS[dV]CASYF; thioester 4-C)
Activity toward Group-I at lower concentration, in words (AgrC-I receptor [1]; single concentration 100 nM (or 1 μM)): lost its inhibitory activity | Activity toward Group-III at lower concentration, in words (AgrC-III): remained an antagonist | Activity toward Group-II at lower concentration, in words (AgrC-II): remained an antagonist

CC(C)C[C@@H]1NC(=O)[C@H](Cc2ccc(O)cc2)NC(=O)[C@H](CC(N)=O)NC(=O)[C@H](CO)NC(=O)[C@@H](NC(=O)[C@@H]2CCCN2C(=O)[C@H](CC(N)=O)NC(=O)[C@H](Cc2ccc(O)cc2)NC(=O)[C@H](CCCCN)NC(=O)[C@H](CO)NC(=O)[C@H](C)NC(=O)[C@@H](N)CC(N)=O)CSC1=O [AIP-II, N-A-S-K-Y-N-P-(C-S-N-Y-L), reference compound] (H-NASKYNPCSNYL; thioester 8-C)
Mode/strength of activity toward AgrC-I (Group I), in words (AgrC-I receptor [1]): inhibit

KYNVCSSYL [AIP-II 9aa P4V N7S, K-Y-N-V-C-S-S-Y-L]
Mode/strength of activity toward AgrC-I (Group I), in words (AgrC-I receptor [1]): switched; also recorded: antagonist | potency estimated from few doses (AgrC-II; [4]): 6.5 nM | potency estimated from few doses (AgrC-I receptor [2]; [5]): > 1800 nM

D-S-V-(DC-A-S-Y-F) (DSV[dC]ASYF; bridge 4-C; also: thiolactone between Cys4 side chain and C-terminus) [AIP-I D-C4]
EC50 in AgrC-I (AgrC-I receptor [1]): Inactive^c | IC50 in AgrC-I (AgrC-I receptor [1]): Inactive^c

I-N-(C-D-F-L-L) [S. aureus AIP-III, reference compound]
EC50 in AgrC-I (AgrC-I receptor [1]): Inactive^c | IC50 in AgrC-I (AgrC-I receptor [1]): Inactive^c

CC(=O)N[C@H]1CSC(=O)[C@H](Cc2ccccc2)NC(=O)[C@H](Cc2ccc(O)cc2)NC(=O)[C@H](CO)NC(=O)[C@H](C)NC1=O [tAIP-I, Ac-(C-A-S-Y-F)] (Ac-CASYF; thioester 1-C)
Mode/strength of activity toward AgrC-I (Group I), in words (AgrC-I receptor [1]): weak inhibitory activity

CC(C)C[C@@H]1NC(=O)[C@H](CO)NC(=O)[C@H](CO)NC(=O)[C@@H](NC(=O)[C@H](C)NC(=O)[C@H](CC(N)=O)NC(=O)[C@@H](NC(=O)CN)C(C)C)CSC(=O)[C@H](Cc2ccccc2)NC1=O [S. aureus AIP-II, G-V-N-A-(C-S-S-L-F), reference compound] (H-GVNACSSLF; thioester 5-C)
Mode/strength of activity toward AgrC-I (Group I), in words (AgrC-I receptor [1]): relatively strong AgrC-I antagonist

KYNVCSAYL [AIP-II 9aa P4V N7A, K-Y-N-V-C-S-A-Y-L]
Mode/strength of activity toward AgrC-I (Group I), in words (AgrC-I receptor [1]): activating; also recorded: agonist | potency estimated from few doses (AgrC-II; [6]): > 600 nM | potency estimated from few doses (AgrC-I receptor [2]; [5]): > 1200 nM

KYNVCSNYL [AIP-II 9aa P4V, K-Y-N-V-C-S-N-Y-L]
Mode/strength of activity toward AgrC-I (Group I), in words (AgrC-I receptor [1]): antagonist | potency estimated from few doses (AgrC-II; [6]): 114 nM | potency estimated from few doses (AgrC-I receptor [2]; [7]): 45 nM

KYNVCANYL [AIP-II 9aa P4V S6A, K-Y-N-V-C-A-N-Y-L]
Mode/strength of activity toward AgrC-I (Group I), in words (AgrC-I receptor [1]): inactive | potency estimated from few doses (AgrC-II; [6]): > 7000 nM

CC(C)C[C@@H]1NC(=O)[C@H](Cc2ccc(O)cc2)NC(=O)[C@H](CC(N)=O)NC(=O)[C@H](CO)NC(=O)[C@@H](NC(=O)[C@@H]2CCCN2C(=O)[C@@H](N)CC(N)=O)CSC1=O [AIP-II 7aa, N-P-(C-S-N-Y-L)] (H-NPCSNYL; thioester 3-C)
Mode/strength of activity toward AgrC-I (Group I), in words (AgrC-I receptor [1]): dramatic reduction in inhibitory activity

KYVPCSNYL [AIP-II 9aa N3V, K-Y-V-P-C-S-N-Y-L]
Mode/strength of activity toward AgrC-I (Group I), in words (AgrC-I receptor [1]): antagonist | Mode/strength of activity toward AgrC-II (Group II), in words (AgrC-II): antagonist | potency estimated from few doses (AgrC-II; [4]): 108 nM | potency estimated from few doses (AgrC-I receptor [2]; [7]): 4.1 nM

KYLPCSNYL [AIP-II 9aa N3L, K-Y-L-P-C-S-N-Y-L]
Mode/strength of activity toward AgrC-I (Group I), in words (AgrC-I receptor [1]): antagonist | Mode/strength of activity toward AgrC-II (Group II), in words (AgrC-II): antagonist | potency estimated from few doses (AgrC-II; [4]): 70.7 nM | potency estimated from few doses (AgrC-I receptor [2]; [7]): 9.4 nM

CC(C)C[C@@H]1NC(=O)[C@H](Cc2ccc(O)cc2)NC(=O)[C@H](CO)NC(=O)[C@H](C)NC(=O)[C@@H](NC(=O)[C@@H]2CCCN2C(=O)[C@H](CC(N)=O)NC(=O)[C@H](Cc2ccc(O)cc2)NC(=O)[C@H](CCCCN)NC(=O)[C@H](C)NC(=O)[C@H](C)NC(=O)[C@@H](N)CC(N)=O)CSC1=O [AIP-III, N-A-A-K-Y-N-P-(C-A-S-Y-L), reference compound] (H-NAAKYNPCASYL; thioester 8-C)
Mode/strength of activity toward AgrC-I (Group I), in words (AgrC-I receptor [1]): inhibit

Y-S-T-(C-D-F-I-M) (YSTCDFIM; bridge 4-C) [S. aureus AIP-I, reference compound]
EC50 in AgrC-I (AgrC-I receptor [1]): Inactive^c | IC50 in AgrC-I (AgrC-I receptor [1]): Inactive^c

D-S-V-(C-A-S-DY-F) (DSVCAS[dY]F; bridge 4-C; also: thiolactone between Cys4 side chain and C-terminus) [AIP-I D-Y7]
EC50 in AgrC-I (AgrC-I receptor [1]): Inactive^c | IC50 in AgrC-I (AgrC-I receptor [1]): Inactive^c | Mode/strength of activity toward AgrC-I (Group I), in words (AgrC-I receptor [1]): complete loss of activity

CC(C)[C@H](NC(=O)[C@H](CO)NC(=O)[C@@H](N)CC(=O)O)C(=O)N[C@H]1CSC(=O)[C@@H](Cc2ccccc2)NC(=O)[C@H](Cc2ccc(O)cc2)NC(=O)[C@H](CO)NC(=O)[C@H](C)NC1=O [AIP-I D-F8, D-S-V-(C-A-S-Y-DF)] (H-DSVCASY[dF]; thioester 4-C)
Mode/strength of activity toward AgrC-I (Group I), in words (AgrC-I receptor [1]): maintained agonistic activity

D-S-V-(C-A-S-Y-A) (DSVCASYA; bridge 4-C; also: thiolactone between Cys4 side chain and C-terminus) [AIP-I F8A]
EC50 in AgrC-I (AgrC-I receptor [1]): Inactive^c | IC50 in AgrC-I (AgrC-I receptor [1]): Inactive^c

C[C@H](N)C(=O)N[C@@H](CO)C(=O)N[C@@H](C)C(=O)N[C@H]1CSC(=O)[C@H](Cc2ccccc2)NC(=O)[C@H](Cc2ccc(O)cc2)NC(=O)[C@H](C)NC(=O)[C@H](C)NC1=O [AIP-I D1AS6AV3A, A-S-A-(C-A-A-Y-F)] (H-ASACAAYF; thioester 4-C)
IC50 against AgrC-III, in words (AgrC-III; [8]): subnanomolar to low nanomolar range | Activity toward Group-III at lower concentration, in words (AgrC-III): strongly inhibited | IC50 against AgrC-II, in words (AgrC-II; [8]): subnanomolar to low nanomolar range | Activity toward Group-II at lower concentration, in words (AgrC-II): strongly inhibited

D-S-V-(C-A-S-A-F) (DSVCASAF; bridge 4-C; also: thiolactone between Cys4 side chain and C-terminus) [AIP-I Y7A]
EC50 in AgrC-I (AgrC-I receptor [1]): Inactive^c | IC50 in AgrC-I (AgrC-I receptor [1]): Inactive^c | Activity against Group-I, in words (AgrC-I receptor [1]; single concentration 10 μM): inactive

CC(C)[C@H](NC(=O)[C@H](CO)NC(=O)[C@@H](N)CC(=O)O)C(=O)N[C@H]1CSC(=O)[C@H](Cc2ccccc2)NC(=O)[C@H](Cc2ccc(O)cc2)NC(=O)[C@H](CO)NC(=O)[C@H](C)NC1=O [AIP-I, D-S-V-(C-A-S-Y-F), reference compound] (H-DSVCASYF; thioester 4-C)
IC50 [3]: 99 nM

CC(=O)N[C@H]1CSC(=O)[C@H](CC(C)C)NC(=O)[C@H](Cc2ccc(O)cc2)NC(=O)[C@H](CC(N)=O)NC(=O)[C@H](CO)NC1=O [tAIP-II, Ac-(C-S-N-Y-L)] (Ac-CSNYL; thioester 1-C)
Mode/strength of activity toward AgrC-I (Group I), in words (AgrC-I receptor [1]): dramatic reduction in inhibitory activity | Activity against Group-III, in words (AgrC-III; single concentration 10 μM): inactive

CC(C)[C@H](NC(=O)[C@H](CO)NC(=O)[C@H](C)N)C(=O)N[C@H]1CSC(=O)[C@H](Cc2ccccc2)NC(=O)[C@H](Cc2ccc(O)cc2)NC(=O)[C@H](C)NC(=O)[C@H](C)NC1=O [AIP-I D1AS6A, A-S-V-(C-A-A-Y-F)] (H-ASVCAAYF; thioester 4-C)
IC50 [3]: 18 nM

D-S-V-(C-DA-S-Y-F) (DSVC[dA]SYF; bridge 4-C; also: thiolactone between Cys4 side chain and C-terminus) [AIP-I D-A5]
EC50 in AgrC-I (AgrC-I receptor [1]): Inactive^c | IC50 in AgrC-I (AgrC-I receptor [1]): Inactive^c
